Experimental findings from patent publication US20230015478A1, “GLP-1 RECEPTOR AGONISTS HAVING IMPROVED PHARMACOLOGICAL AND DRUG DELIVERY PROPERTIES” (priority 2021, published 2023) are described below.

The target of this experiment is T1, hGLP1 receptor (Homo sapiens, UniProt P43220).
T1 construct: expressed in transfected cells; host or cells: HEK (human embryonic kidney) cells co-expressing hGLP1 receptor and CRE-Luciferase
The experiment can be described thus: cAMP HTRF agonist assay in HEK cells co-expressing hGLP1 receptor and CRE-Luciferase. Type of experiment: cell-based. Conditions: for EC50: cAMP EC50, nM (0.1% albumin), 0.1% albumin; for potency compared with the parent peptide analog (1-2): replacement of Aib2, in words. In a few lines:
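HEK cells co-expressing hGLP1R and CRE-luciferase, 1000 cells/well in DPBS with 500 μM IBMX, exposed to peptides or exendin-4 reference for 30 min; 11-point 1:3 series from top 1.0 μM. cAMP measured by HTRF (665/615 nm) after 1 h at room temperature; EC50 from 4-parameter logistic fit.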

Square brackets hold non-standard residues; d marks the D form. Peptide text beside a SMILES is read from it. Bip = N[C@@H](Cc1ccc(-c2ccccc2)cc1)C(=O)O; αMePhe(2-F) = C[C@](N)(Cc1ccccc1F)C(=O)O; Phe(2-F) = N[C@@H](Cc1ccccc1F)C(=O)O; αMeF = C[C@](N)(Cc1ccccc1)C(=O)O; αMeP = C[C@@]1(C(=O)O)CCCN1; Aib = CC(C)(N)C(=O)O Bounds are passed on as bounds.

T1 sequence (P43220 24-463): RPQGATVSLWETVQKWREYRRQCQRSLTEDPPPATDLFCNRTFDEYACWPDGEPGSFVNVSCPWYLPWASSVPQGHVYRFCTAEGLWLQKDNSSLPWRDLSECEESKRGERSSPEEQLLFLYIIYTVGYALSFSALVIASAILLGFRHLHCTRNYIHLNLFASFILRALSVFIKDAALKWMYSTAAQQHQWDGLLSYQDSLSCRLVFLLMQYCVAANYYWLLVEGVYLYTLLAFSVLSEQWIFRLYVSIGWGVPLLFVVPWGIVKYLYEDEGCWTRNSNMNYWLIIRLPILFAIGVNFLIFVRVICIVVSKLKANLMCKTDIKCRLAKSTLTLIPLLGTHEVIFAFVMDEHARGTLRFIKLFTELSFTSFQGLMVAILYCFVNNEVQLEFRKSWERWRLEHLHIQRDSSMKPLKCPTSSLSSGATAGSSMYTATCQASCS

For the setting “Table 2”, `C[C@H](NC(=O)[C@H](CO)NC(=O)[C@@H](NC(=O)[C@H](Cc1ccccc1F)NC(=O)[C@@H](NC(=O)CNC(=O)[C@H](CCC(=O)O)NC(=O)C(C)(C)NC(=O)[C@@H](N)Cc1c[nH]cn1)[C@@H](C)O)[C@@H](C)O)C(=O)N[C@@H](Cc1ccc(-c2ccccc2)cc1)C(=O)N[C@@H](Cc1ccc(-c2ccccc2)cc1)C(N)=O` [3-27, H2N-His-Aib-Glu-Gly-Thr-Phe(2-F)-Thr-Ser-Ala-Bip-Bip-C(O)NH2] (H-H[Aib]EGT[Phe(2-F)]TSA[Bip][Bip]-NH2) yielded an EC50 of 67 nM.

For the compound `C[C@H](NC(=O)[C@H](CC(=O)O)NC(=O)[C@H](CO)NC(=O)[C@@H](NC(=O)[C@H](Cc1ccccc1F)NC(=O)[C@@H](NC(=O)CNC(=O)[C@H](CCC(=O)O)NC(=O)C(C)(C)NC(=O)[C@@H](N)Cc1c[nH]cn1)[C@@H](C)O)[C@@H](C)O)C(=O)N[C@@H](Cc1ccc(-c2ccccc2)cc1)C(N)=O` [3-28, H2N-His-Aib-Glu-Gly-Thr-Phe(2-F)-Thr-Ser-Asp-Ala-Bip-C(O)NH2] (H-H[Aib]EGT[Phe(2-F)]TSDA[Bip]-NH2), the EC50 (Table 2) is more than 1000 nM.

`C[C@H](NC(=O)[C@H](Cc1ccc(-c2ccccc2)cc1)NC(=O)[C@H](CC(=O)O)NC(=O)[C@H](CO)NC(=O)[C@@H](NC(=O)[C@H](Cc1ccccc1F)NC(=O)[C@@H](NC(=O)CNC(=O)[C@H](CCC(=O)O)NC(=O)C(C)(C)NC(=O)[C@@H](N)Cc1c[nH]cn1)[C@@H](C)O)[C@@H](C)O)C(N)=O` [3-29, H2N-His-Aib-Glu-Gly-Thr-Phe(2-F)-Thr-Ser-Asp-Bip-Ala-C(O)NH2] returned an EC50 (Table 2) of more than 1000 nM.

Regarding `C[C@@H](O)[C@H](NC(=O)CNC(=O)[C@H](CCC(=O)O)NC(=O)C(C)(C)NC(=O)C(C)(C)N)C(=O)N[C@@](C)(Cc1ccccc1F)C(=O)N[C@H](C(=O)N[C@@H](CO)C(=O)N[C@@H](CC(=O)O)C(=O)N[C@@H](Cc1ccc(-c2ccccc2)cc1)C(=O)N[C@@H](Cc1ccc(-c2ccccc2)cc1)C(N)=O)[C@@H](C)O` [3-30, H2N-Aib-Aib-Glu-Gly-Thr-αMePhe(2-F)-Thr-Ser-Asp-Bip-Bip-C(O)NH2] (H-[Aib][Aib]EGT[αMePhe(2-F)]TSD[Bip][Bip]-NH2), the EC50 (Table 3) is 2.7 nM.

On to `C[C@@H](O)[C@H](NC(=O)CNC(=O)C(C)(C)NC(=O)C(C)(C)NC(=O)[C@@H](N)Cc1c[nH]cn1)C(=O)N[C@@](C)(Cc1ccccc1F)C(=O)N[C@H](C(=O)N[C@@H](CO)C(=O)N[C@@H](CC(=O)O)C(=O)N[C@@H](Cc1ccc(-c2ccccc2)cc1)C(=O)N[C@@H](Cc1ccc(-c2ccccc2)cc1)C(N)=O)[C@@H](C)O` [3-31, H2N-His-Aib-Aib-Gly-Thr-αMePhe(2-F)-Thr-Ser-Asp-Bip-Bip-C(O)NH2] (H-H[Aib][Aib]GT[αMePhe(2-F)]TSD[Bip][Bip]-NH2), for which a half-maximal effect (Table 3) (EC50) was put at 4.9 nM.

For the compound `C[C@@H](O)[C@H](NC(=O)C(C)(C)NC(=O)[C@H](CCC(=O)O)NC(=O)C(C)(C)NC(=O)[C@@H](N)Cc1c[nH]cn1)C(=O)N[C@@](C)(Cc1ccccc1F)C(=O)N[C@H](C(=O)N[C@@H](CO)C(=O)N[C@@H](CC(=O)O)C(=O)N[C@@H](Cc1ccc(-c2ccccc2)cc1)C(=O)N[C@@H](Cc1ccc(-c2ccccc2)cc1)C(N)=O)[C@@H](C)O` [3-32, H2N-His-Aib-Glu-Aib-Thr-αMePhe(2-F)-Thr-Ser-Asp-Bip-Bip-C(O)NH2] (H-H[Aib]E[Aib]T[αMePhe(2-F)]TSD[Bip][Bip]-NH2), where the note is “Table 3”, the EC50 is 15.8 nM.

Regarding `C[C@@H](O)[C@H](NC(=O)[C@](C)(Cc1ccccc1F)NC(=O)C(C)(C)NC(=O)CNC(=O)[C@H](CCC(=O)O)NC(=O)C(C)(C)NC(=O)[C@@H](N)Cc1c[nH]cn1)C(=O)N[C@@H](CO)C(=O)N[C@@H](CC(=O)O)C(=O)N[C@@H](Cc1ccc(-c2ccccc2)cc1)C(=O)N[C@@H](Cc1ccc(-c2ccccc2)cc1)C(N)=O` [3-33, H2N-His-Aib-Glu-Gly-Aib-αMePhe(2-F)-Thr-Ser-Asp-Bip-Bip-C(O)NH2] (H-H[Aib]EG[Aib][αMePhe(2-F)]TSD[Bip][Bip]-NH2), for the setting “Table 3”, the concentration for a half-maximal effect (EC50) is 7.3 nM.

Consider `C[C@@H](O)[C@H](NC(=O)CNC(=O)[C@H](CCC(=O)O)NC(=O)C(C)(C)NC(=O)[C@@H](N)Cc1c[nH]cn1)C(=O)N[C@@](C)(Cc1ccccc1F)C(=O)NC(C)(C)C(=O)N[C@@H](CO)C(=O)N[C@@H](CC(=O)O)C(=O)N[C@@H](Cc1ccc(-c2ccccc2)cc1)C(=O)N[C@@H](Cc1ccc(-c2ccccc2)cc1)C(N)=O` [3-35, H2N-His-Aib-Glu-Gly-Thr-αMePhe(2-F)-Aib-Ser-Asp-Bip-Bip-C(O)NH2] (H-H[Aib]EGT[αMePhe(2-F)][Aib]SD[Bip][Bip]-NH2), for which, for the setting “Table 3”, the response was half-maximal at 91.4 nM (EC50).

For `C[C@@H](O)[C@H](NC(=O)CNC(=O)[C@H](CCC(=O)O)NC(=O)C(C)(C)NC(=O)[C@@H](N)Cc1c[nH]cn1)C(=O)N[C@@](C)(Cc1ccccc1F)C(=O)N[C@H](C(=O)NC(C)(C)C(=O)N[C@@H](CC(=O)O)C(=O)N[C@@H](Cc1ccc(-c2ccccc2)cc1)C(=O)N[C@@H](Cc1ccc(-c2ccccc2)cc1)C(N)=O)[C@@H](C)O` [3-36, H2N-His-Aib-Glu-Gly-Thr-αMePhe(2-F)-Thr-Aib-Asp-Bip-Bip-C(O)NH2] (H-H[Aib]EGT[αMePhe(2-F)]T[Aib]D[Bip][Bip]-NH2), the EC50 (Table 3) was determined as 150 nM.

`C[C@@H](O)[C@H](NC(=O)CNC(=O)[C@H](CCC(=O)O)NC(=O)C(C)(C)NC(=O)[C@@H](N)Cc1c[nH]cn1)C(=O)N[C@@](C)(Cc1ccccc1F)C(=O)N[C@H](C(=O)N[C@@H](CO)C(=O)NC(C)(C)C(=O)N[C@@H](Cc1ccc(-c2ccccc2)cc1)C(=O)N[C@@H](Cc1ccc(-c2ccccc2)cc1)C(N)=O)[C@@H](C)O` [3-37, H2N-His-Aib-Glu-Gly-Thr-αMePhe(2-F)-Thr-Ser-Aib-Bip-Bip-C(O)NH2] (H-H[Aib]EGT[αMePhe(2-F)]TS[Aib][Bip][Bip]-NH2) returned a 50% effective concentration (EC50) (Table 3) of 91.6 nM.

Where the note is “Table 4”, `C[C@@H](O)[C@H](NC(=O)CNC(=O)[C@H](CCC(=O)O)NC(=O)[C@@H]1CCCN1C(=O)[C@@H](N)Cc1c[nH]cn1)C(=O)N[C@@](C)(Cc1ccccc1F)C(=O)N[C@H](C(=O)N[C@@H](CO)C(=O)N[C@@H](CC(=O)O)C(=O)N[C@@H](Cc1ccc(-c2ccccc2)cc1)C(=O)N[C@@H](Cc1ccc(-c2ccccc2)cc1)C(N)=O)[C@@H](C)O` [3-38, H2N-His-Pro-Glu-Gly-Thr-α-MePhe(2-F)-Thr-Ser-Asp-Bip-Bip-C(O)NH2] (H-HPEGT[αMePhe(2-F)]TSD[Bip][Bip]-NH2) showed an EC50 of 0.04 nM.

Turning to `CC(C)[C@H](NC(=O)[C@@H](N)Cc1c[nH]cn1)C(=O)N[C@@H](CCC(=O)O)C(=O)NCC(=O)N[C@H](C(=O)N[C@@](C)(Cc1ccccc1F)C(=O)N[C@H](C(=O)N[C@@H](CO)C(=O)N[C@@H](CC(=O)O)C(=O)N[C@@H](Cc1ccc(-c2ccccc2)cc1)C(=O)N[C@@H](Cc1ccc(-c2ccccc2)cc1)C(N)=O)[C@@H](C)O)[C@@H](C)O` [3-39, H2N-His-Val-Glu-Gly-Thr-α-MePhe(2-F)-Thr-Ser-Asp-Bip-Bip-C(O)NH2] (H-HVEGT[αMePhe(2-F)]TSD[Bip][Bip]-NH2), the “potency compared with the parent peptide analog (1-2)” value is “slightly less potency”. For the same compound, the EC50 (Table 4) came out at 0.37 nM.

For the compound `C[C@@H](O)[C@H](NC(=O)CNC(=O)[C@H](CCC(=O)O)NC(=O)[C@]1(C)CCCN1C(=O)[C@@H](N)Cc1c[nH]cn1)C(=O)N[C@@](C)(Cc1ccccc1F)C(=O)N[C@H](C(=O)N[C@@H](CO)C(=O)N[C@@H](CC(=O)O)C(=O)N[C@@H](Cc1ccc(-c2ccccc2)cc1)C(=O)N[C@@H](Cc1ccc(-c2ccccc2)cc1)C(N)=O)[C@@H](C)O` [3-40, H2N-His-α-MePro-Glu-Gly-Thr-α-MePhe(2-F)-Thr-Ser-Asp-Bip-Bip-C(O)NH2] (H-H[αMeP]EGT[αMePhe(2-F)]TSD[Bip][Bip]-NH2), the “potency compared with the parent peptide analog (1-2)” value was “significantly greater potency”. This compound had an EC50 (Table 4) of 0.003 nM.

Turning to `C[C@@H](O)[C@H](NC(=O)CNC(=O)[C@H](CCC(=O)O)NC(=O)C1(C)CCCN1C(=O)[C@@H](N)Cc1c[nH]cn1)C(=O)NC(C)(Cc1ccccc1F)C(=O)N[C@H](C(=O)N[C@@H](CO)C(=O)N[C@@H](CC(=O)O)C(=O)NC(C)(C)C(=O)N[C@@H](Cc1ccc(-c2ccccc2)cc1)C(N)=O)[C@@H](C)O` (stereo partly drawn) [3-60, H2N-His-α-MePro-Glu-Gly-Thr-α-MePhe(2-F)-Thr-Ser-Asp-Aib-Bip-C(O)NH2], the EC50 (Table 4) was more than 1000 nM.

`C[C@@H](O)[C@H](NC(=O)CNC(=O)[C@H](CCC(=O)O)NC(=O)[C@]1(C)CCCN1C(=O)[C@@H](N)Cc1c[nH]cn1)C(=O)N[C@@](C)(Cc1ccccc1)C(=O)N[C@H](C(=O)N[C@@H](CO)C(=O)N[C@@H](CC(=O)O)C(=O)N[C@@H](Cc1ccc(-c2ccccc2)cc1)C(=O)NC(C)(C)C(N)=O)[C@@H](C)O` [3-61, H2N-His-α-MePro-Glu-Gly-Thr-α-MePhe-Thr-Ser-Asp-Bip-Aib-C(O)NH2] (H-H[αMeP]EGT[αMeF]TSD[Bip][Aib]-NH2): the response (Table 4) was half-maximal at 8.3 nM (EC50).

For the compound `C[C@@H](O)[C@H](NC(=O)CNC(=O)[C@H](CCC(=O)O)NC(=O)C(C)(C)NC(=O)[C@@H](N)Cc1c[nH]cn1)C(=O)N[C@@](C)(Cc1ccccc1F)C(=O)N[C@@H](CC(N)=O)C(=O)N[C@@H](CO)C(=O)N[C@@H](CC(=O)O)C(=O)N[C@@H](Cc1ccc(-c2ccccc2)cc1)C(=O)N[C@@H](Cc1ccc(-c2ccccc2)cc1)C(N)=O` [3-62, H2N-His-Aib-Glu-Gly-Thr-α-MePhe(2-F)-Asn-Ser-Asp-Bip-Bip-C(O)NH2] (H-H[Aib]EGT[αMePhe(2-F)]NSD[Bip][Bip]-NH2), for the setting “Table 4”, the midpoint of the response, the EC50, lay at 3.1 nM.
